Data reported in US9370523B2, “Method for diagnosing or prediagnosing a beta-amyloidopathy or an alpha-synucleopathy” (Immungenetics AG, priority 2010, dated 2016).

Tested on: ABCC1 transporter
Test: Activation of the ABCC1 transporter

In the case of CCSc1ccc2c(c1)N(CCCN1CCN(C)CC1)c1ccccc1S2 [thiethylperazine, 2-(ethylthio)-10-[3-(4-methylpiperazin-1-yl)propyl]-10H-phenothiazine], the “activation of the ABCC1 transporter, in words” value is reported as “particularly efficient activator of the ABCC1 transporter”.
